Test results taken from PMC9833666, “Designing and identifying β-hairpin peptide macrocycles with antibiotic potential” (Science Advances, 2023).
Like-named read-outs stand apart in the source and are kept apart here. Bridge positions count the residues as written; N and C are the ends. Peptide text beside a SMILES is read from it.

Assays:
[1] = system: Single-donor human red blood cells; test: Hemolysis assay; type: cell-based
Method: Single-donor human red blood cells (Innovative Research, no. IWB3ALS) were washed in PBS and adjusted to a concentration of 1 × 10^9 cells/ml. Each peptide was added individually to 200 μl of cells at a concentration of either 300 μg/ml (SySA library) or 128 μg/ml (SySA-5 optimization library) in a 96-well polypropylene plate (Corning, 3879). PBS alone and 1% Triton X-100 were used for background normalization and 100% hemolysis, respectively. Each reaction was set up in triplicate. Plates were incubated for 3 hours at 37°C. Following incubation, samples were centrifuged at 800g for 20 min, and 100 μl of supernatant was transferred to a flat-bottom 96-well plate (Genesse, 25-104). Percent hemolysis for each sample was determined by normalizing the absorbance at 540 nm for each sample to the average background and dividing by the average absorbance for 1% Triton X-100 (100% hemolysis). Error bars represent 1 SD of triplicate samples.

Escherichia coli W3110 = type: cell-based
[2] = system: Acinetobacter baumannii AB5075
Method: MICs were performed by a modifiedClinical and Laboratory Standards Institute) procedure. […] Separately, E. coli W3110 or A. baumannii AB5075 was grown overnight in 5 ml of standard MH at 37°C. Cells from these cultures were diluted to a concentration of 5 × 10^5 to 6 × 10^5 cells/ml in either standard MH, MHII, RPMI, or fetal bovine serum, and 90 μl was added to each well of the 96-well plate containing diluted peptide. Plates were wrapped twice in parafilm and incubated at 37°C for 18 to 24 hours. Wells were examined by eye against wells with no bacteria for signs of growth. MICs were reported as the minimum concentration with no observable growth. In cases where triplicate samples differed, the concentration supported by the median of the three replicates was reported. […]
For consistency, all SynCH peptides were resuspended at 10 mg/ml in water. Peptides were then visually inspected for any lack of solubility (Data File S1). […]
We had this library commercially synthesized and tested its ability to inhibit the growth of Acinetobacter baumannii AB5075, a clinically isolated Carbapenem Resistant Acinetobacter (CRA) pathogen. MICs were performed in MH as well as 100% FBS, which is likely more representative of the in vivo environment. […]

Row | Molecule | %Hemo [1] [%] | AB5075 MIC FBS ([2]; AB5075) [µg/mL] | AB5075 MIC MH ([2]; AB5075) [µg/mL] | also measured
1 | CC(C)C[C@@H]1NC(=O)[C@H](CCCNC(=N)N)NC(=O)[C@H](CCCNC(=N)N)NC(=O)[C@H](CCCNC(=N)N)NC(=O)CNC(=O)[C@H](CC(N)=O)NC(=O)[C@H](CC(N)=O)NC(=O)[C@H](CC(C)C)NC(=O)[C@H](CCCNC(=N)N)NC(=O)[C@H](C(C)C)NC(=O)[C@H](CCCNC(=N)N)NC(=O)[C@H](C(C)C)NC(=O)[C@@H](N)CSSC[C@@H](C(=O)O)NC(=O)[C@H](C(C)C)NC(=O)[C@H](CCC(N)=O)NC(=O)[C@H](CC(C)C)NC(=O)[C@H](CO)NC(=O)[C@H](C(C)C)NC(=O)[C@H](CCCCN)NC1=O [SyPA-1] (H-CVRVRLNNGRRRLKVSLQVC-OH; disulfide 1-20) | 1.30 |  |  | 
2 | CC(C)C[C@@H]1NC(=O)CNC(=O)[C@H](CCCNC(=N)N)NC(=O)[C@H](CCCNC(=N)N)NC(=O)[C@H](CCCNC(=N)N)NC(=O)[C@H](CC(N)=O)NC(=O)[C@H](CC(N)=O)NC(=O)[C@H](CC(C)C)NC(=O)[C@H](CCCNC(=N)N)NC(=O)[C@H](C(C)C)NC(=O)[C@H]([C@@H](C)O)NC(=O)[C@H](C(C)C)NC(=O)[C@@H](N)CSSC[C@@H](C(=O)O)NC(=O)[C@H](C(C)C)NC(=O)[C@H](CCC(N)=O)NC(=O)[C@H](CC(C)C)NC(=O)[C@H](CO)NC(=O)[C@H](C(C)C)NC(=O)[C@H](CCCNC(=N)N)NC1=O [SyPA-2] (H-CVTVRLNNRRRGLRVSLQVC-OH; disulfide 1-20) | 3.75 |  |  | 
3 | CC[C@H](C)[C@@H]1NC(=O)[C@H](CCCNC(=N)N)NC(=O)[C@H](CC(C)C)NC(=O)CNC(=O)[C@H](CO)NC(=O)[C@H](CCCNC(=N)N)NC(=O)[C@H](CCCNC(=N)N)NC(=O)[C@H](CC(N)=O)NC(=O)[C@H](CC(=O)O)NC(=O)[C@H](CC(C)C)NC(=O)[C@H](CCCNC(=N)N)NC(=O)[C@H](C(C)C)NC(=O)[C@H](CCCNC(=N)N)NC(=O)[C@H](C(C)C)NC(=O)[C@@H](N)CSSC[C@@H](C(=O)O)NC(=O)[C@H](C(C)C)NC(=O)[C@H](CCC(N)=O)NC(=O)[C@H](CC(C)C)NC(=O)[C@H](CO)NC1=O [SyPA-3] (H-CVRVRLDNRRSGLRISLQVC-OH; disulfide 1-20) | 0.39 |  |  | W3110 MIC (Escherichia coli W3110; W3110): >128 µg/mL
4 | CC[C@H](C)[C@@H]1NC(=O)[C@H](CCCNC(=N)N)NC(=O)[C@H](CC(C)C)NC(=O)[C@@H](N)CSSC[C@@H](C(=O)O)NC(=O)[C@H](C(C)C)NC(=O)[C@H](CCC(N)=O)NC(=O)[C@H](C(C)C)NC(=O)[C@H](CO)NC(=O)[C@H](C(C)C)NC(=O)[C@H](CCCNC(=N)N)NC(=O)[C@H](CC(C)C)NC(=O)CNC(=O)[C@H](CCCNC(=N)N)NC(=O)[C@H](CCCNC(=N)N)NC(=O)CNC(=O)[C@H](CC(N)=O)NC(=O)[C@H](CC(N)=O)NC(=O)[C@H](CC(C)C)NC(=O)[C@H](CCCNC(=N)N)NC1=O [SyPA-4] (H-CLRIRLNNGRRGLRVSVQVC-OH; disulfide 1-20) | 1.59 |  |  | 
5 | CC[C@H](C)[C@@H]1NC(=O)[C@H](CCCNC(=N)N)NC(=O)[C@H](CC(C)C)NC(=O)[C@@H](N)CSSC[C@@H](C(=O)O)NC(=O)[C@H](C(C)C)NC(=O)[C@H](CCC(N)=O)NC(=O)[C@H](CC(C)C)NC(=O)[C@H](CO)NC(=O)[C@H](C(C)C)NC(=O)[C@H](CCCNC(=N)N)NC(=O)[C@H](CC(C)C)NC(=O)CNC(=O)[C@H](CCCNC(=N)N)NC(=O)[C@H](CCCNC(=N)N)NC(=O)[C@H](CCCNC(=N)N)NC(=O)[C@H](CC(=O)O)NC(=O)[C@H](CC(N)=O)NC(=O)[C@H](CC(C)C)NC(=O)[C@H](CCCNC(=N)N)NC1=O [SyPA-5] (H-CLRIRLNDRRRGLRVSLQVC-OH; disulfide 1-20) | 1.89 |  |  | 
6 | CC[C@H](C)[C@@H]1NC(=O)[C@H](CCCNC(=N)N)NC(=O)[C@H](C(C)C)NC(=O)[C@@H](N)CSSC[C@@H](C(=O)O)NC(=O)[C@H](C(C)C)NC(=O)[C@H](CCC(N)=O)NC(=O)[C@H](C(C)C)NC(=O)[C@H](CO)NC(=O)[C@H](C(C)C)NC(=O)[C@H](CCCNC(=N)N)NC(=O)[C@H](C(C)C)NC(=O)[C@H](CCCNC(=N)N)NC(=O)[C@H](CCCNC(=N)N)NC(=O)[C@H](CCCNC(=N)N)NC(=O)[C@H](CCCNC(=N)N)NC(=O)[C@H](CC(N)=O)NC(=O)[C@H](CC(N)=O)NC(=O)[C@H](CC(C)C)NC(=O)[C@H](CCCNC(=N)N)NC1=O [SyPA-6] (H-CVRIRLNNRRRRVRVSVQVC-OH; disulfide 1-20) |  |  |  | W3110 MIC (Escherichia coli W3110; SyPA peptides, MH, replicate 1): 32 µg/mL; W3110 MIC (Escherichia coli W3110; SyPA peptides, MH, replicate 2): 32 µg/mL; W3110 MIC (Escherichia coli W3110; SyPA peptides, MH, replicate 3): 32 µg/mL; %Hemo ([1]; SyPA peptides, human red blood cells, 3 h 37°C, relative to 1% Triton X-100, peptide concentration not stated for SyPA, n=3): 0.90%
7 | CC(C)C[C@@H]1NC(=O)[C@H](CCCNC(=N)N)NC(=O)CNC(=O)[C@H](CCCNC(=N)N)NC(=O)[C@H](CCCNC(=N)N)NC(=O)[C@H](CC(N)=O)NC(=O)[C@H](CC(N)=O)NC(=O)[C@H](CC(C)C)NC(=O)[C@H](CCCNC(=N)N)NC(=O)[C@H](C(C)C)NC(=O)[C@H](CCCNC(=N)N)NC(=O)[C@H](CC(C)C)NC(=O)[C@@H](N)CSSC[C@@H](C(=O)O)NC(=O)[C@H](C(C)C)NC(=O)[C@H](CCC(N)=O)NC(=O)[C@H](CC(C)C)NC(=O)[C@H](CO)NC(=O)[C@H](C(C)C)NC(=O)[C@H](CCCNC(=N)N)NC1=O [SyPA-8] (H-CLRVRLNNRRGRLRVSLQVC-OH; disulfide 1-20) | 2.87 |  |  | 
8 | CC(C)C[C@@H]1NC(=O)[C@H](CCCNC(=N)N)NC(=O)[C@H](C(C)C)NC(=O)[C@H](CCCCN)NC(=O)[C@H](CCCNC(=N)N)NC(=O)[C@H](CCCNC(=N)N)NC(=O)[C@H](CCCNC(=N)N)NC(=O)[C@H](CCCNC(=N)N)NC(=O)[C@H](CC(C)C)NC(=O)[C@H](CCCNC(=N)N)NC(=O)[C@H](C(C)C)NC(=O)[C@H](CCCNC(=N)N)NC(=O)[C@H](CC(C)C)NC(=O)[C@@H](N)CSSC[C@@H](C(=O)O)NC(=O)[C@H](C(C)C)NC(=O)[C@H](CCC(N)=O)NC1=O [SySA-5.19] (H-CLRVRLRRRRKVRLQVC-OH; disulfide 1-17) |  | > 128 | 4 | 
9 | CC(C)C[C@@H]1NC(=O)[C@H](CCCNC(=N)N)NC(=O)[C@H](C(C)C)NC(=O)[C@H](CCCCN)NC(=O)[C@H](CCCNC(=N)N)NC(=O)[C@H](CCCNC(=N)N)NC(=O)[C@H](CCCNC(=N)N)NC(=O)[C@H](CCCNC(=N)N)NC(=O)[C@H](CC(C)C)NC(=O)[C@H](CCCNC(=N)N)NC(=O)[C@H](C(C)C)NC(=O)[C@H](CCCNC(=N)N)NC(=O)[C@H](CC(C)C)NC(=O)[C@@H](N)CSSC[C@@H](C(=O)O)NC(=O)[C@H](C(C)C)NC(=O)[C@H](CCCNC(=N)N)NC1=O [SySA-5.20] (H-CLRVRLRRRRKVRLRVC-OH; disulfide 1-17) |  | 128 | 4 | 
10 | CC(C)C[C@@H]1NC(=O)[C@H](CO)NC(=O)[C@H](C(C)C)NC(=O)[C@H](CCCCN)NC(=O)[C@H](CCCNC(=N)N)NC(=O)CNC(=O)[C@H](CCCNC(=N)N)NC(=O)[C@H](CCCNC(=N)N)NC(=O)[C@H](CC(N)=O)NC(=O)[C@H](CC(C)C)NC(=O)[C@H](CCCNC(=N)N)NC(=O)[C@H](C(C)C)NC(=O)[C@H](CCCNC(=N)N)NC(=O)[C@@H](N)CSSC[C@@H](C(=O)O)NC(=O)[C@H](CCC(N)=O)NC1=O [SySA-5.23] (H-CRVRLNRRGRKVSLQC-OH; disulfide 1-16) |  | > 128 | 8 | 
11 | CC(C)C[C@@H]1NC(=O)[C@H](CO)NC(=O)[C@H](C(C)C)NC(=O)[C@H](CCCCN)NC(=O)[C@H](CCCNC(=N)N)NC(=O)CNC(=O)[C@H](CCCNC(=N)N)NC(=O)[C@H](CCCNC(=N)N)NC(=O)[C@H](CCCNC(=N)N)NC(=O)[C@H](CC(C)C)NC(=O)[C@H](CCCNC(=N)N)NC(=O)[C@H](C(C)C)NC(=O)[C@H](CCCNC(=N)N)NC(=O)[C@@H](N)CSSC[C@@H](C(=O)O)NC(=O)[C@H](CCCNC(=N)N)NC1=O [SySA-5.24] (H-CRVRLRRRGRKVSLRC-OH; disulfide 1-16) |  | > 128 | 16 | 
12 | Protegrin-1 [reference compound] |  |  |  | MIC (Escherichia coli W3110; W3110): 0.5 to 4 µg/mL; W3110 MIC MH (Escherichia coli W3110; W3110): 0.5 µg/mL; W3110 MIC RPMI (Escherichia coli W3110; W3110): 0.5 µg/mL; AB5075 MIC FBS ([2]; 100% fetal bovine serum, median of triplicate): 32 µg/mL; AB5075 MIC MH ([2]; Mueller-Hinton, median of triplicate): 1 µg/mL
